What all share (experiment): Cell proliferation assay (CellTiter-Glo, 3 days), single agent
Format in all cases: cell-based
What all share (conditions): 3 days treatment; read-out: Absolute IC50
(In general: ATP-based viability assays read luminescence as a measure of living cells.)

In one assay the test system is SW756 (Cervix). The protocol: (§1) Two duplicate plates were set up.
(§2) At day 0, 10 μL culture medium to each well for T0 reading. […] Compound I was diluted and 10 μL of each 10× compound I from working solutions for a concentration ranging from 10 μM to about 0.005 μM. Cisplatin was diluted to about 3.33 mM to about 150 nM.
(§3) IC50's were determined for each cell line.

For another assay, the system named is NCI-H2122 (Lung). As for the experimental part:
as §1, §2, §3

Another assay relates to NCI-H1373 (Lung). The protocol:
as §1, §2, §3

A further assay concerns Calu-1 (Lung). As for the experimental part: as §1, §2, §3
In another assay the test system is HCC44 (Lung). The protocol: as §1, §2, §3
The subject of a further assay is SW837 (Rectum). As for the experimental part: as §1, §2, §3
The next assay has as its system MIA PaCa-2 (Pancreas). The protocol:
as §1, §2, §3

Another assay concerns UM-UC-3 (bladder). The protocol:
as §1, §2, §3

Another assay has as its system NCI-H358 (Lung). The protocol: as §1, §2, §3
For a further assay, the system named is SW1463 (rectum). As for the experimental part:
as §1, §2, §3

Another assay deals with KYSE-410 (HN/Esophagus). The protocol:
as §1, §2, §3

The subject of the next assay is NCI-H1792 (Lung). The protocol:
as §1, §2, §3

The test system of a further assay is NCI-H23 (Lung). As for the experimental part: as §1, §2, §3

As for `N.N.[Cl][Pt][Cl]` [Cisplatin, reference compound], the half-inhibitory concentration (IC50) (usually the concentration needed to halve the response being measured) in the assay on SW756 (Cervix) turned out to be 10.3 µM; with NCI-H2122 (Lung), 17.8 µM; in the assay with NCI-H1373 (Lung) it was 8.72 µM; with Calu-1 (Lung), 10.2 µM; with HCC44 (Lung), 7.96 µM; with SW837 (Rectum) it was 42.5 µM. Besides, the IC50 worked out at 7.03 µM in the assay on MIA PaCa-2 (Pancreas); 1.86 µM with UM-UC-3 (bladder); 12.5 µM with NCI-H358 (Lung); 12.2 µM in the assay on SW1463 (rectum); 15.8 µM in the assay on KYSE-410 (HN/Esophagus); 4.88 µM in the assay with NCI-H1792 (Lung). Besides, the concentration for half-maximal inhibition (IC50) with NCI-H23 (Lung) came to 3.58 µM.
